Data reported in patent US7795290B2 (Genentech, Inc., priority 2004, dated 2010).

Molecular target: T1, AKT1 (Homo sapiens, UniProt P31749)
T1 construct: purchased Upstate 14-276
Assay: HTS ATP-utilizing enzyme assay, off-chip mobility-shift (Caliper HTS 250)
Assay type: biochemical
Conditions: kinase named = inhibitory activity/selectivity; test compound 10 μM; active = greater than three-sigma from mean
Description: The following procedures describe the reagent and plate preparation for a HTS of an ATP-utilizing enzyme, such as a protein kinase, run in an off-chip mobility-shift assay format. The following provides an HTS protocol for running a protein kinase HTS screen on a Caliper HTS 250 microfluidics system. The following parameters are dependent on the protein kinase used and can be determined by one skilled in the art as part of a typical assay development process. For example, the peptide substrate used can be identified from the current literature, by screening a peptide library of potential protein kinase substrates, or by other applicable means accepted in the field.
The following table provides typical screen assay parameters appropriate for a Caliper HTS 250 microfluidics system used to assay AKT1. Parameters used to assay other protein kinases can be determined by one skilled in the art.
Assays to determine the kinase inhibitory activity of chemical entities of the present disclosure were performed using a Caliper HTS 250 microfluidics device, Greiner U-bottom assay plates, a Multidrop for transfer of reagents, and Biomek FX (AMNCBM03) software. Initially, 2.4 μL of a 1 mM solution of a test compound in 100% DMSO was added to a well of the Greiner U-bottom plate. A single Greiner U-bottom plate having 24×16 wells could include multiple test compounds. […] Using the Biomek FX, 10 μL of 0.5 M EDTA was added by the span-8 to wells, indicated as 100% Control and 2.4 μL of 100% DMSO was added by the span-8 to wells, indicated as 0% Control. […] The total reaction volume in each well was 25 μL, and the concentration of the test compound was 10 μM. The assay plate was incubated for 2.5 hrs at 20° C. to 22° C. […] The inhibition of the ATP-utilizing enzyme, such as a particular protein kinase, was determined by measuring the ratio of the peptide substrate to phosphorylated product for each well of the assay plate using the Caliper HTS 250 system.
The use of three-sigma statistical limits represents a conservative method for declaring potential hits among targets. The three-sigma activity, as well as the mean population activity, can be different for each target enzyme.
Each chemical entity listed in Table 2 was tested for protein kinase inhibitory activity according to the biological assays and definitions of protein kinase inhibitory activity as described herein.

T1 sequence (P31749 whole entry): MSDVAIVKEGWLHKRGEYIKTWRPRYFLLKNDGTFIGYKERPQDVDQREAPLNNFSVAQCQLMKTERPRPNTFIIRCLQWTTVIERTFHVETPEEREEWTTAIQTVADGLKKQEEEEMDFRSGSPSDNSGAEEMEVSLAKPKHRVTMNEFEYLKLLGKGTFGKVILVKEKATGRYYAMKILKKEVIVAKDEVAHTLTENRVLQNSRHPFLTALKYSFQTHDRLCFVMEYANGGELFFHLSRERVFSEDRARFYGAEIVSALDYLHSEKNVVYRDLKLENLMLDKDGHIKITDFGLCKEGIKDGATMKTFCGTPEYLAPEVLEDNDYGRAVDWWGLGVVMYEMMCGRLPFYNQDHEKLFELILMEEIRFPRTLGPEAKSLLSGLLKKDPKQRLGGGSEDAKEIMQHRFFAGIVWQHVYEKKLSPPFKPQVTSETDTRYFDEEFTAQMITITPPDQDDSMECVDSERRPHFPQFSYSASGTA

| SMILES | Activity |
| --- | --- |
| COc1ccc(-c2csc(N(CCCN3CCOCC3)C(=O)c3cc(Cl)ccn3)n2)cc1 [4-chloro-N-(4-(4-methoxyphenyl)thiazol-2-yl)-N-(3-morpholinopropyl)picolinamide] | AKT1 |
| O=C(c1ccc(F)cc1)N(CCCN1CCOCC1)c1nc(-c2ccccc2)cs1 [4-fluoro-N-(3-morpholinopropyl)-N-(4-phenylthiazol-2-yl)benzamide] | AKT1 |
| COc1ccc(-c2csc(N(CCCN3CCOCC3)C(=O)c3ccc(F)cc3)n2)cc1 [4-fluoro-N-(4-(4-methoxyphenyl)thiazol-2-yl)-N-(3-morpholinopropyl)benzamide] | AKT1 |
| Cc1ccc(C(=O)N(CCCN2CCOCC2)c2nc(-c3ccccc3)cs2)cc1 [4-methyl-N-(3-morpholinopropyl)-N-(4-phenylthiazol-2-yl)benzamide] | AKT1 |
| COc1ccc(-c2csc(N(CCCN3CCOCC3)C(=O)c3ccc(Cl)s3)n2)cc1 [5-chloro-N-(4-(4-methoxyphenyl)thiazol-2-yl)-N-(3-morpholinopropyl)thiophene-2-carboxamide] | AKT1 |
| O=C(Nc1ccc2c(c1)OCCO2)c1csc(N(CCCN2CCOCC2)C(=O)c2cccs2)n1 [N-(2,3-dihydrobenzo[b][1,4]dioxin-6-yl)-2-(N-(3-morpholinopropyl)thiophene-2-carboxamido)thiazole-4-carboxamide] | AKT1 |
| O=C1CCCN1CCCN(C(=O)c1ccco1)c1nc(-c2cc(-c3ccccc3)no2)cs1 [N-(3-(2-oxopyrrolidin-1-yl)propyl)-N-(4-(3-phenylisoxazol-5-yl)thiazol-2-yl)furan-2-carboxamide] | AKT1 |
| CN1CCN(CCCN(C(=O)c2ccccc2)c2nc(-c3ccccc3)cs2)CC1 [N-(3-(4-methylpiperazin-1-yl)propyl)-N-(4-phenylthiazol-2-yl)benzamide] | AKT1 |
| COc1ccc(OC)c(-c2csc(N(CCCN3CCCCCC3)C(=O)c3ccccc3)n2)c1 [N-(3-(azepan-1-yl)propyl)-N-(4-(2,5-dimethoxyphenyl)thiazol-2-yl)benzamide] | AKT1 |
| COc1ccc(OC)c(-c2csc(N(CCCN3CCCCCC3)C(=O)c3ccco3)n2)c1 [N-(3-(azepan-1-yl)propyl)-N-(4-(2,5-dimethoxyphenyl)thiazol-2-yl)furan-2-carboxamide] | AKT1 |
| COc1ccc(OC)c(-c2csc(N(CCCN3CCCCCC3)C(=O)c3cccs3)n2)c1 [N-(3-(azepan-1-yl)propyl)-N-(4-(2,5-dimethoxyphenyl)thiazol-2-yl)thiophene-2-carboxamide] | AKT1 |
| COc1ccc(-c2csc(N(CCCN3CCCCCC3)C(=O)c3ccccc3)n2)cc1 [N-(3-(azepan-1-yl)propyl)-N-(4-(4-methoxyphenyl)thiazol-2-yl)benzamide] | AKT1 |
| COc1ccc(-c2csc(N(CCCN3CCCCCC3)C(=O)c3ccco3)n2)cc1 [N-(3-(azepan-1-yl)propyl)-N-(4-(4-methoxyphenyl)thiazol-2-yl)furan-2-carboxamide] | AKT1 |
| COc1ccc(-c2csc(N(CCCN3CCCCCC3)C(=O)c3cccs3)n2)cc1 [N-(3-(azepan-1-yl)propyl)-N-(4-(4-methoxyphenyl)thiazol-2-yl)thiophene-2-carboxamide] | AKT1 |
| O=C(c1ccccc1)N(CCCN1CCCCCC1)c1nc(-c2ccccc2)cs1 [N-(3-(azepan-1-yl)propyl)-N-(4-phenylthiazol-2-yl)benzamide] | AKT1 |
| O=C(c1ccco1)N(CCCN1CCCCCC1)c1nc(-c2ccccc2)cs1 [N-(3-(azepan-1-yl)propyl)-N-(4-phenylthiazol-2-yl)furan-2-carboxamide] | AKT1 |

Results, then the compound that gave them:

| Activity | SMILES |
| --- | --- |
| AKT1 | CNC(=O)[C@H]1CCCN1CCCN(C(=O)c1cccs1)c1nc(-c2cc3ccccc3o2)cs1 [(R)-1-(3-(N-(4-(benzofuran-2-yl)thiazol-2-yl)thiophene-2-carboxamido)propyl)-N-methylpyrrolidine-2-carboxamide] |
| AKT1 | O=C(O)[C@H]1CCCN1CCCN(C(=O)c1cccs1)c1nc(-c2cc3ccccc3o2)cs1 [(R)-1-(3-(N-(4-(benzofuran-2-yl)thiazol-2-yl)thiophene-2-carboxamido)propyl)pyrrolidine-2-carboxylic acid] |
| AKT1 | CN(C)C(=O)[C@@H]1CCCN1CCCN(C(=O)c1cccs1)c1nc(-c2cc3ccccc3o2)cs1 [(S)-1-(3-(N-(4-(benzofuran-2-yl)thiazol-2-yl)thiophene-2-carboxamido)propyl)-N,N-dimethylpyrrolidine-2-carboxamide] |
| AKT1 | CC(C)(C)OC(=O)[C@@H]1CCCN1CCCN(C(=O)c1cccs1)c1nc(-c2cc3ccccc3o2)cs1 [(S)-tert-butyl 1-(3-(N-(4-(benzofuran-2-yl)thiazol-2-yl)thiophene-2-carboxamido)propyl)pyrrolidine-2-carboxylate] |
| AKT1 | O=C(c1cccs1)N(CCCN1CCC[C@H]1CO)c1nc(-c2cc3ccccc3o2)cs1 [(S)—N-(4-(benzofuran-2-yl)thiazol-2-yl)-N-(3-(2-(hydroxymethyl)pyrrolidin-1-yl)propyl)thiophene-2-carboxamide] |
| AKT1 | COC[C@@H]1CCCN1CCCN(C(=O)c1cccs1)c1nc(-c2cc3ccccc3o2)cs1 [(S)—N-(4-(benzofuran-2-yl)thiazol-2-yl)-N-(3-(2-(methoxymethyl)pyrrolidin-1-yl)propyl)thiophene-2-carboxamide] |
| AKT1 | O=C(c1cccs1)N(CCCC(=O)N1c2ccccc2C[C@H]1CO)c1nc(-c2cc3ccccc3o2)cs1 [(S)—N-(4-(benzofuran-2-yl)thiazol-2-yl)-N-(4-(2-(hydroxymethyl)indolin-1-yl)-4-oxobutyl)thiophene-2-carboxamide] |
| AKT1 | O=C(c1cccs1)N(CCCn1ccnc1)c1nc(-c2cc3ccccc3o2)cs1 [N-(3-(1H-imidazol-1-yl)propyl)-N-(4-(benzofuran-2-yl)thiazol-2-yl)thiophene-2-carboxamide] |
| AKT1 | O=C1CCCN1CCCN(C(=O)c1cccs1)c1nc(-c2cc(-c3ccccc3)no2)cs1 [N-(3-(2-oxopyrrolidin-1-yl)propyl)-N-(4-(3-phenylisoxazol-5-yl)thiazol-2-yl)thiophene-2-carboxamide] |
| AKT1 | CC(=O)NC1CCN(C(=O)CCN(C(=O)c2cccs2)c2nc(-c3cc4ccccc4o3)cs2)C1 (centres unmarked) [N-(3-(3-acetamidopyrrolidin-1-yl)-3-oxopropyl)-N-(4-(benzofuran-2-yl)thiazol-2-yl)thiophene-2-carboxamide] |
| AKT1 | CC(=O)NC1CCN(CCCN(C(=O)c2cccs2)c2nc(-c3cc4ccccc4o3)cs2)C1 (centres unmarked) [N-(3-(3-acetamidopyrrolidin-1-yl)propyl)-N-(4-(benzofuran-2-yl)thiazol-2-yl)thiophene-2-carboxamide] |
| AKT1 | CC(=O)NCCCC(=O)NCCCN(C(=O)c1cccs1)c1nc(-c2cc3ccccc3o2)cs1 [N-(3-(4-acetamidobutanamido)propyl)-N-(4-(benzofuran-2-yl)thiazol-2-yl)thiophene-2-carboxamide] |
| AKT1 | CC(=O)N1CCN(CCCN(C(=O)c2cccs2)c2nc(-c3cc4ccccc4o3)cs2)CC1 [N-(3-(4-acetylpiperazin-1-yl)propyl)-N-(4-(benzofuran-2-yl)thiazol-2-yl)thiophene-2-carboxamide] |
| AKT1 | CN1CCN(CCCN(C(=O)c2ccco2)c2nc(-c3cc(-c4ccccc4)no3)cs2)CC1 [N-(3-(4-methylpiperazin-1-yl)propyl)-N-(4-(3-phenylisoxazol-5-yl)thiazol-2-yl)furan-2-carboxamide] |
| AKT1 | CN1CCN(CCCN(C(=O)c2ccco2)c2nc(-c3ccccc3)cs2)CC1 [N-(3-(4-methylpiperazin-1-yl)propyl)-N-(4-phenylthiazol-2-yl)furan-2-carboxamidevv] |
| AKT1 | O=C(CCN(C(=O)c1cccs1)c1nc(-c2cc3ccccc3o2)cs1)NCC1COCCO1 (centres unmarked) [N-(3-((1,4-dioxan-2-yl)methylamino)-3-oxopropyl)-N-(4-(benzofuran-2-yl)thiazol-2-yl)thiophene-2-carboxamide] |
| AKT1 | Cc1cc(C(=O)NCCCN(C(=O)c2cccs2)c2nc(-c3cc4ccccc4o3)cs2)nn1C [N-(3-(N-(4-(benzofuran-2-yl)thiazol-2-yl)thiophene-2-carboxamido)propyl)-1,5-dimethyl-1H-pyrazole-3-carboxamide] |
| AKT1 | O=C(NCCCN(C(=O)c1cccs1)c1nc(-c2cc3ccccc3o2)cs1)c1ccncc1 [N-(3-(N-(4-(benzofuran-2-yl)thiazol-2-yl)thiophene-2-carboxamido)propyl)isonicotinamide] |
| AKT1 | O=C(c1cccs1)N(CCCN1CCCCCC1)c1nc(-c2ccccc2)cs1 [N-(3-(azepan-1-yl)propyl)-N-(4-phenylthiazol-2-yl)thiophene-2-carboxamide] |
